{"source": "patent EP4104817A1", "about": "“OPHTHALMIC COMPOSITION COMPRISING ASTRAGALOSIDE IV” (Skeye Pharma GbR, priority 2021, dated 2022)", "key": {"[1]": {"system": "Intracellular, mitochondrial reactive oxygen species (ROS)", "test": "Dihydrorhodamine-123 (DHR-123) fluorescence assay of ROS under oxidative stress (H2O2, 2 hours)", "format": "cell-based", "conditions": "Homo sapiens, HCEC, hCECs, percent of DMSO control, H2O2 group 149 ± 9%, p = 0.0006 vs H2O2", "protocol": "Intracellular, mitochondrial reactive oxygen species (ROS) were assessed using the cell membrane permeable dihydrorhodamine-123 (DHR-123) assay (D23806; ThermoFisher Scientific, Waltham, MA, USA) according to the manufacturer's instructions. Measurements were made after exposing human corneal epithelial cells to H2O2, astragaloside IV or DMSO for 2 hours. For ROS staining, cells were incubated with 10 µM DHR-123 for 15 minutes. Nucleus staining was performed using Hoechst 33342 nucleic acid stain (H1399; ThermoFisher Scientific, Waltham, MA, USA). Randomly, a minimum of 3 images of every treatment group were acquired with a 20x fluorescence objective using the aforementioned Axio Observer 7. Results were expressed in percent of fluorescence intensity relative to the baseline measurement in the DMSO control group. For quantification of the fluorescence signals, the microscope software ZEN 3.0 (Carl Zeiss AG, Jena, Germany) was used."}, "hCEC [2]": {"system": "hCEC", "test": "Cell scratch assay (migration / wound healing in vitro), follow-up up to 72 hours", "format": "cell-based, Human", "conditions": "1 µM, 2.5 µM; follow-up of 72 hours; versus DMSO-only control; p > 0.05 for all groups", "protocol": "To analyze hCEC migration in vitro, cells were cultured in corneal epithelial cell growth medium with supplement mix until confluence of the cells of a 6-well cell culture plate. Following an incubation period of 24 hours in cell culture medium without supplements, 5 linear scratches were performed in each well using a 200 µl pipette tip (Eppendorf AG, Hamburg, Germany). The hCECs were then incubated prospectively under treatment with astragaloside IV or DMSO as a control for up to 72 hours. Reference images were acquired at the beginning of the incubation period using the phase contrast mode on an Axio Observer 7 (Carl Zeiss AG, Jena, Germany). Every 24 hours, follow-up images of 4-5 different scratch sections were acquired. The size of the wound area was analyzed using a semi-automated analysis tool in ImageJ 1.53a (National Institute of Health, Bethesda, MD, USA)."}, "[3]": {"system": "Human corneal epithelial cells (hCEC)", "test": "WST-1 cell viability assay, 72 hours of treatment", "format": "cell-based", "conditions": "DMSO-treated control 100 ± 9%, mean ± standard deviation", "protocol": "(§1) Human corneal epithelial cells (hCEC; SCCE016; Merck Millipore, Burlington, MA, USA) were cultured in corneal epithelial cell growth medium with supplement mix (LGC Standards, Teddington, United Kingdom). Approximately 10,000 hCECs were seeded onto each well of a 96-well cell-culture dishes (NUNC, Langenselbold, Germany). Confluent cells were used for Water-soluble tetrazolium salt (WST-1) cell proliferation assays (Hoffmann-La Roche AG, Basel, Switzerland). After 24 hours of incubation with 100 µl of corneal epithelial cell growth medium without its' supplement mix (LGC Standards, Teddington, United Kingdom), hCECs were treated with different concentrations of astragaloside IV (AIV; Selleckchem, Houston, TX, USA) dissolved in dimethyl sulfoxide (DMSO; Carl Roth AG, Karlsruhe, Germany). Control groups were treated with DMSO only. Following another 72 hours of incubation, the cells were incubated with the WST-1 solution for 30 minutes. Substrate turnover was measured with an ELISA reader at 450 nm (Spectramax 190; Molecular Devices, Sunnyvale, CA, USA) and a reference at 690 nm."}, "hCEC [4]": {"system": "hCEC", "test": "BrdU ELISA cell proliferation assay, 24 hours of treatment", "format": "cell-based", "conditions": "Homo sapiens, compared to DMSO-treated control, mean ± standard deviation", "protocol": "Proliferation of hCEC was determined using a 5-bromo-2'-deoxyuridine (BrdU) ELISA in accordance with the manufacturers' recommendations (Merck KGaA, Darmstadt, Germany). In brief, approximately 7,000 cells were seeded onto a 96-well cell culture plate and incubated for 24h to achieve complete adherence of the cells. After 24 hours of incubation with 100 µl of corneal epithelial cell growth medium without its' supplement mix, hCECs were treated with astragaloside IV dissolved in DMSO. Following another 24 hours of incubation with BrdU labeling solution, cells were fixed and incubated with anti-BrdU antibodies according to the manufacturer's recommendations. BrdU incorporation into the DNA of hCECs was quantified by absorbance measurement at 450 nm using the ELISA reader Spectramax 190 (Molecular Devices, Sunnyvale, CA, USA)."}, "bovine corneas": {"system": "bovine corneas", "test": "Corneal erosion assay ex vivo (epithelial wound healing), follow-up 72 hours", "conditions": "1 µM or 2.5 µM, every 12 hours up to 72 hours, versus DMSO-treated control, p > 0.05 for all groups", "protocol": "Furthermore, corneal epithelial cell wound healing was determined on bovine corneas ex vivo. Bovine globes were obtained from a local butchery following approval by the authority for waste management of animal carcasses (ID: DE 09 162 0066-219) and processed within 12 hours post-mortem. The bovine globes were washed in 10% w/v povidone-iodine for 5 minutes. A circular corneal epithelial erosion was created using an 8 mm trephine and a hockey knife (Katena Products Inc., Parsippany, NJ, USA). Subsequently, a sclerocorneal ring was excised with eye scissors (Katena Products Inc., Parsippany, NJ, USA) and transferred to a 60 mm cell culture plate. To acquire reference images of the corneal erosion, the wound area was stained with a 0.8 mg/ml fluorescein sodium solution and illuminated with blue light (approximate wavelength 490 nm). Images were acquired using a distance-fixed digital single lens reflex camera equipped with a macro lens (Canon Inc., Tokyo, Japan). Consequently, the sclerocorneal rings were incubated in Dulbecco's Modified Eagle's Medium (Bio&SELL GmbH, Feucht, Germany) supplemented with 50 IU penicillin/ml and 50 µg streptomycin/ml (Merck Millipore, Burlington, MA, USA) and astragaloside IV or DMSO only. Follow-up images were acquired every 12 hours, the cell culture medium was renewed daily."}, "[5]": {"system": "human corneal epithelial cells", "test": "WST-1 cell viability assay under oxidative stress (H2O2 100 µM, 24 hours)", "format": "cell-based", "conditions": "H2O2 group 79 ± 14%, untreated control 100 ± 3%", "protocol": "as §1\nTo determine potential anti-oxidative effects of astragaloside IV, hCECs were incubated and treated analogous to the above-mentioned WST-1 cell proliferation assay with minor modifications. […]"}}}
{"smiles": "CC(C)(O)C1CCC(C)(C2C(O)CC3(C)C4CC(OC5OC(CO)C(O)C(O)C5O)C5C(C)(C)C(OC6OCC(O)C(O)C6O)CCC56CC46CCC23C)O1", "note": "[astragaloside IV, (2R,3R,4S,5S,6R)-2-(((2aR,3R,4R,5aS,7R,11aR)-4-hydroxy-3-((2R,5S)-5-(2-hydroxypropan-2-yl)-2-methyltetrahydrofuran-2-yl)-2a,5a,8,8-tetramethyl-9-(((2S,3R,4S,5R)-3,4,5-trihydroxytetrahydro-2H-pyran-2-yl)oxy)hexadecahydrocyclopenta[a]cyclopropa[e]phenanthren-7-yl)oxy)-6-(hydroxymethyl)tetrahydro-2H-pyran-3,4,5-triol]", "values": [{"measurement": "activity at 1 µM", "setting": "[1]; 1 µM with H2O2 100 µM", "value": "94 ± 7", "unit": "%"}, {"measurement": "activity at 2.5 µM", "setting": "[1]; 2.5 µM with H2O2 100 µM", "value": "94 ± 15", "unit": "%"}, {"measurement": "corneal epithelial cell migration (scratched hCEC area over time)", "setting": "hCEC [2]", "value": "none of the treatment groups showed a significant decrease of corneal epithelial cell migration"}, {"measurement": "viability at 1 µM", "setting": "[3]; 1 µM, p < 0.0001", "value": "154 ± 33", "unit": "%"}, {"measurement": "viability at 2.5 µM", "setting": "[3]; 2.5 µM, p < 0.0001", "value": "149 ± 27", "unit": "%"}, {"measurement": "viability at 5 µM", "setting": "[3]; 5 µM, p = 0.0003", "value": "138 ± 22", "unit": "%"}, {"measurement": "viability at 10 µM", "setting": "[3]; 10 µM, non-significant decrease, p > 0.9999", "value": "89 ± 5", "unit": "%"}, {"measurement": "activity at 1 µM", "setting": "hCEC [4]; 1 µM, p = 0.0028, read-out: corneal epithelial cell proliferation", "value": "125 ± 26", "unit": "%"}, {"measurement": "activity at 2.5 µM", "setting": "hCEC [4]; 2.5 µM, p = 0.0017, read-out: corneal epithelial cell proliferation", "value": "126 ± 30", "unit": "%"}, {"measurement": "activity at 5 µM", "setting": "hCEC [4]; 5 µM, not significant, p > 0.9999, read-out: corneal epithelial cell proliferation", "value": "112 ± 14", "unit": "%"}, {"measurement": "speed of re-epithelialization", "setting": "bovine corneas", "value": "did not show any significant difference in the speed of re-epithelialization"}, {"measurement": "viability at 1 µM", "setting": "[5]; 1 µM with H2O2 100 µM, p = 0.0044 vs H2O2", "value": "91 ± 4", "unit": "%"}, {"measurement": "viability at 2.5 µM", "setting": "[5]; 2.5 µM with H2O2 100 µM, p = 0.0002 vs H2O2", "value": "95 ± 6", "unit": "%"}]}
